Several values for one entry are separate records, joined by “and”; a condition that tells them apart may be missing. Equal values may be shown once.
How the values were obtained:
[1] = Plasma kinetics of ivermectin after subcutaneous injection of Ivomec to dogs; format: in vivo, dog; details: for Plasma concentrations of ivermectin / Plasma concentrations of ivermectin, Mean: Ivomec subcutaneous 400 μg.kg^−1, dogs
Method: This study was conducted in order to assess the pharmacokinetics of ivemectin in the dog after subcutaneous administration of Ivomec® at a dose of 400 μg.kg^−1 of ivermectin which is known to be effective on gastrointestinal nematodes and to have a route of reference for further development.
Five male Beagle dogs were injected a subcutaneous dose of 400 μg.kg^−1 of ivermectin. Blood samples were collected at intervals up to 56 days post-dosing. The determination of ivermectin in dog plasma was carried out by HPLC, using fluorescence detection after derivatization. The limit of quantification was 100 pg.ml^−1.

[2] = ivermectin, cited from earlier work
[3] = Ivomec subcutaneous 400 μg.kg^−1, 5 dogs, mean
[4] = Ivomec subcutaneous, dose 400 pg.kg^−1 [sic], individual dogs

ivermectin
AUC(0-t), Mean [1, 3]: 226900 pg·days/mL | AUC(0-∞), Mean [1, 3]: 227897 pg·days/mL | Cmax, Mean [1, 3]: 28.935 ng/mL and ~30 ng/mL | Plasma concentrations of ivermectin ([1]; 0, individual dogs): BLQ (The limit of quantification was 100 pg.ml^−1) | Plasma concentrations of ivermectin, Mean ([1]; 0, mean of 5 dogs): BLQ (The limit of quantification was 100 pg.ml^−1) | Plasma concentrations of ivermectin ([1]; 0.25 h, individual dogs): 275 pg.ml^−1 and BLQ (The limit of quantification was 100 pg.ml^−1) (2×) and 158 pg.ml^−1 and 1123 pg.ml^−1 | Plasma concentrations of ivermectin, Mean ([1]; 0.25 h, mean of 5 dogs (BLQ taken as 0)): 0.311 ng/mL | Plasma concentrations of ivermectin ([1]; 0.5 h, individual dogs): 531 pg.ml^−1 and BLQ (The limit of quantification was 100 pg.ml^−1) (2×) and 183 pg.ml^−1 and 1757 pg.ml^−1 | Plasma concentrations of ivermectin, Mean ([1]; 0.5 h, mean of 5 dogs (BLQ taken as 0)): 0.494 ng/mL | Plasma concentrations of ivermectin ([1]; 1 h, individual dogs): 952 pg.ml^−1 and BLQ (The limit of quantification was 100 pg.ml^−1) and 272 pg.ml^−1 and 1487 pg.ml^−1 and 257 pg.ml^−1 | Plasma concentrations of ivermectin, Mean ([1]; 1 h, mean of 5 dogs (BLQ taken as 0)): 0.594 ng/mL | Plasma concentrations of ivermectin ([1]; 4 h, individual dogs): 3148 pg/mL and 935 pg/mL and 2519 pg/mL and 2788 pg/mL and 1621 pg/mL | Plasma concentrations of ivermectin, Mean ([1]; 4 h, mean of 5 dogs): 2.202 ng/mL | Plasma concentrations of ivermectin ([1]; 10 h, individual dogs): 9438 pg/mL and 2799 pg/mL and 7471 pg/mL and 6881 pg/mL and 2322 pg/mL | Plasma concentrations of ivermectin, Mean ([1]; 10 h, mean of 5 dogs): 5.782 ng/mL | Plasma concentrations of ivermectin ([1]; 24 h, individual dogs): 19192 pg/mL and 9322 pg/mL and 25996 pg/mL and 13986 pg/mL and 7730 pg/mL | Plasma concentrations of ivermectin, Mean ([1]; 24 h, mean of 5 dogs): 15.245 ng/mL | Plasma concentrations of ivermectin ([1]; 32 h, individual dogs): 21779 pg/mL and 11651 pg/mL and 28569 pg/mL and 18632 pg/mL and 11810 pg/mL | Plasma concentrations of ivermectin, Mean ([1]; 32 h, mean of 5 dogs): 18.488 ng/mL | Plasma concentrations of ivermectin ([1]; 48 h, individual dogs): 26256 pg/mL and 18359 pg/mL and 33716 pg/mL and 27200 pg/mL and 21450 pg/mL | Plasma concentrations of ivermectin, Mean ([1]; 48 h, mean of 5 dogs): 25.396 ng/mL | Plasma concentrations of ivermectin ([1]; 56 h, individual dogs): 23243 pg/mL and 18913 pg/mL and 33887 pg/mL and 20868 pg/mL and 22925 pg/mL | Plasma concentrations of ivermectin, Mean ([1]; 56 h, mean of 5 dogs): 23.967 ng/mL | Plasma concentrations of ivermectin ([1]; D 3, individual dogs): 23145 pg/mL and 23181 pg/mL and 38453 pg/mL and 22367 pg/mL and 25089 pg/mL | Plasma concentrations of ivermectin, Mean ([1]; D 3, mean of 5 dogs): 26.447 ng/mL | Plasma concentrations of ivermectin ([1]; D 4, individual dogs): 19498 pg/mL and 24875 pg/mL and 41257 pg/mL and 22550 pg/mL and 24955 pg/mL | Plasma concentrations of ivermectin, Mean ([1]; D 4, mean of 5 dogs): 26.627 ng/mL | Plasma concentrations of ivermectin ([1]; D 5, individual dogs): 13068 pg/mL and 21883 pg/mL and 28398 pg/mL and 21501 pg/mL and 21333 pg/mL | Plasma concentrations of ivermectin, Mean ([1]; D 5, mean of 5 dogs): 21.237 ng/mL | Plasma concentrations of ivermectin ([1]; D 7, individual dogs): 10892 pg/mL and 17800 pg/mL and 21415 pg/mL and 15434 pg/mL and 15695 pg/mL | Plasma concentrations of ivermectin, Mean ([1]; D 7, mean of 5 dogs): 16.247 ng/mL | Plasma concentrations of ivermectin ([1]; D 9, individual dogs): 5662 pg/mL and 12098 pg/mL and 11892 pg/mL and 10889 pg/mL and 12769 pg/mL | Plasma concentrations of ivermectin, Mean ([1]; D 9, mean of 5 dogs): 10.662 ng/mL | Plasma concentrations of ivermectin ([1]; D 14, individual dogs): 1924 pg/mL and 5269 pg/mL and 4248 pg/mL and 5752 pg/mL and 6285 pg/mL | Plasma concentrations of ivermectin, Mean ([1]; D 14, mean of 5 dogs): 4.696 ng/mL | Plasma concentrations of ivermectin ([1]; D 21, individual dogs): 162 pg/mL and 1034 pg/mL and 625 pg/mL and 746 pg/mL and 903 pg/mL | Plasma concentrations of ivermectin, Mean ([1]; D 21, mean of 5 dogs): 0.694 ng/mL | Plasma concentrations of ivermectin ([1]; D 28, individual dogs): BLQ (The limit of quantification was 100 pg.ml^−1) (2×) and 190 pg.ml^−1 and 108 pg.ml^−1 and 119 pg.ml^−1 | Plasma concentrations of ivermectin, Mean ([1]; D 28, mean of 5 dogs (BLQ taken as 0)): BLQ (The limit of quantification was 100 pg.ml^−1) | Plasma concentrations of ivermectin ([1]; D 35, individual dogs): BLQ (The limit of quantification was 100 pg.ml^−1) | Plasma concentrations of ivermectin, Mean ([1]; D 35, mean of 5 dogs): BLQ (The limit of quantification was 100 pg.ml^−1) | tmax ([1]; Ivomec subcutaneous, 400 μg.kg^−1, individual dogs): 2 d (2×) and 4 d (2×) and 3 d | AUC(0-t) [1, 4]: 161141 pg·days/mL and 224572 pg·days/mL and 291636 pg·days/mL and 225830 pg·days/mL and 231319 pg·days/mL | AUC(0-∞) [1, 4]: 161690 pg·days/mL and 225452 pg·days/mL and 294236 pg·days/mL and 226283 pg·days/mL and 231824 pg·days/mL | Cmax [1, 4]: 26.256 ng/mL and 24.875 ng/mL and 41.257 ng/mL and 27.2 ng/mL and 25.089 ng/mL | t½ [1, 4]: 56.4 h and 77 h and 69.1 h and 69.8 h and 70.6 h | tmax, literature data ([2]; food state of dogs not specified): 2 to 4 h | AUC, mean literature values [2]: 107.318 ng·h/mL | Cmax, mean literature values [2]: more than 2000 pg. ml^−1

Source: patent publication US6962713B2, “Spot-on formulations for combating parasites” (Merial, priority 1919, dated 2005)
